In patent publication US9605005B2, “Alkynyl alcohols and methods of use” (Genentech, Inc., priority 2013, dated 2017):

Biological target: nuclear factor-kappa B (NF-kB)-inducing kinase (NIK) (Homo sapiens (Human), UniProt Q99558)
Assay: NIK enzyme inhibition assay (Transcreener ADP, NIK ADP-FP)
Type: biochemical
Settings: purified NIK 0.5 nM, 10 μM ATP, fluorescence polarization; read-out: NIK ADP-FP (Ki μM)

Sequence of nuclear factor-kappa B (NF-kB)-inducing kinase (NIK) (Q99558 whole entry): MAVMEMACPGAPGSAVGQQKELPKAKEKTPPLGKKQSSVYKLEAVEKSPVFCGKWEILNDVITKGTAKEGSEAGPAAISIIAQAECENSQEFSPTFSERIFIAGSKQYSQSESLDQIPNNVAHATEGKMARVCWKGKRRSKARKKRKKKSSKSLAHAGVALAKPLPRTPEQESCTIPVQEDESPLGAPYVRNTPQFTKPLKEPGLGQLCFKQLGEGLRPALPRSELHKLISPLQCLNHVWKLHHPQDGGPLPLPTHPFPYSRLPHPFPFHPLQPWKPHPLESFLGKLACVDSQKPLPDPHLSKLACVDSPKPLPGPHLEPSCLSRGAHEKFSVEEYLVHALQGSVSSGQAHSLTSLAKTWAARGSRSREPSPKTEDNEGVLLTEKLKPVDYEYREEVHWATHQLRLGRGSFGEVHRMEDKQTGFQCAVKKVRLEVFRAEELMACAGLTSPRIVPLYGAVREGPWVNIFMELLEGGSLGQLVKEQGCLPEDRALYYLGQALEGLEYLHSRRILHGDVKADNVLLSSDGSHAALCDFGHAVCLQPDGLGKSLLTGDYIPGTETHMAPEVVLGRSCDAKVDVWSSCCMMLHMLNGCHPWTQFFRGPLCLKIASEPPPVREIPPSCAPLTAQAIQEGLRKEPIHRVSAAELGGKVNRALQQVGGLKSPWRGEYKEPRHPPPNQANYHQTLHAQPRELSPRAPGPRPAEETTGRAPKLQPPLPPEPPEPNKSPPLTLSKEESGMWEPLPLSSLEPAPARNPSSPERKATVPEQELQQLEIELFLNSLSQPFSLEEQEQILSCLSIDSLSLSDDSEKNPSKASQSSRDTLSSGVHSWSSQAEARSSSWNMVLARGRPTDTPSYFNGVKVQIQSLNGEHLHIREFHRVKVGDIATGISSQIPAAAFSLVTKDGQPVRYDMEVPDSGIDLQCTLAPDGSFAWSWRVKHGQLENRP

| Compound | Ki [µM] |
| --- | --- |
| CN1CC[C@@](O)(C#Cc2ccnc(-n3nc(C(N)=O)c4c3C[C@]3(C)C[C@@H]3C4)c2)C1=O [Compound 5, (4aR,5aS)-1-[4-[2-[(3R)-3-hydroxy-1-methyl-2-oxo-pyrroli-din-3-yl]ethynyl]-2-pyri-dyl]-5a-methyl-4,4a,5,6-tetrahydrocyclopropa[f]inda-zole-3-carboxamide] | 0.0139 |
| CN1CC[C@@](O)(C#Cc2ccnc(-n3nc(C(N)=O)c4c3CC(C)(C)[C@H](OCc3ccccc3)C4)c2)C1=O [Compound 8, (5R)-5-benzyloxy-1-[4-[2-[(3R)-3-hydroxy-1-methyl-2-oxo-pyrrolidin-3-yl]ethynyl]-2-pyridyl]-6,6-dimethyl-5,7-dihydro-4H-indazole-3-carboxamide] | 0.0724 |
| CN1CC[C@@](O)(C#Cc2ccnc(-n3nc(C(N)=O)c4c3CC(C)(C)[C@H](O)C4)c2)C1=O [Compound 9, (5R)-5-hydroxy-1-[4-[2-[(3R)-3-hydroxy-1-methyl-2-oxo-pyrrolidin-3-yl]ethynyl]-2-pyridyl]-6,6-dimethyl-5,7-dihydro-4H-indazole-3-carboxamide] | 0.0332 |
| CN1CC[C@@](O)(C#Cc2ccnc(-n3nc(C(N)=O)c4c3CCC[C@H]4NC(=O)C3CC3)c2)C1=O [Compound 15, (4R)-4-(cyclopropanecarbo-nylamino)-1-[4-[2-[(3R)-3-hydroxy-1-methyl-2-oxo-pyrrolidin-3-yl]ethynyl]-2-pyridyl]-4,5,6,7-tetrahydroinda-zole-3-carboxamide] | 0.382 |
| CN1CC[C@@](O)(C#Cc2ccnc(-n3nc(C(N)=O)c4c3CCC[C@@H]4NC(=O)C3CC3)c2)C1=O [Compound 17, (4S)-4-(cyclopropanecarbo-nylamino)-1-[4-[2-[(3R)-3-hydroxy-1-methyl-2-oxo-pyrrolidin-3-yl]ethynyl]-2-pyridyl]-4,5,6,7-tetrahydroin-dazole-3-carboxamide] | 0.146 |
| CC(=O)N1CCc2c(c(C(N)=O)nn2-c2cccc(C#C[C@]3(O)CCN(C)C3=O)c2)C1 [Compound 19, 5-acetyl-1-[3-[2-[(3R)-3-hy-droxy-1-methyl-2-oxo-pyrroli-din-3-yl]ethynyl]phenyl]-6,7-dihydro-4H-pyrazolo[4,3-c]pyridine-3-carboxamide] | 0.0102 |
| CN1CC[C@@](O)(C#Cc2cccc(-n3nc(C(N)=O)c4c3CCNC4)c2)C1=O [Compound 21, 1-[3-[2-[(3R)-3-hydroxy-1-methyl-2-oxo-pyrrolidin-3-yl]ethynyl]phenyl]-4,5,6,7-tetra-hydropyrazolo[4,3-c]pyri-dine-3-carboxamide] | 0.233 |
| CN1CC[C@@](O)(C#Cc2cccc(-n3nc(C(N)=O)c4c3CCCC4(F)F)c2)C1=O [Compound 24, 4,4-difluoro-1-[3-[2-[(3R)-3-hydroxy-1-methyl-2-oxo-pyrrolidin-3-yl]ethynyl]phe-nyl]-6,7-dihydro-5H-indazole-3-carboxamide] | 0.00762 |
| C[C@@](O)(C#Cc1cccc(-n2nc(C(N)=O)c3ccccc32)c1)c1ncccn1 [Compound 28, 1-[3-[(3R)-3-hydroxy-3-pyri-midin-2-yl-but-1-ynyl]phe-nyl]indazole-3-carboxamide] | 0.0352 |
| CN1CC[C@@](O)(C#Cc2cccc(-n3nc(C(N)=O)c4c3CCN(C3COC3)C4)c2)C1=O [Compound 33, 1-[3-[2-[(3R)-3-hydroxy-1-methyl-2-oxo-pyrrolidin-3-yl]ethynyl]phenyl]-5-(oxetan-3-yl)-6,7-dihydro-4H-pyra-zolo[4,3-c]pyridine-3-carbox-amide] | 0.259 |
| CN1CC[C@@](O)(C#Cc2cccc(-n3nc(C(N)=O)c4c3CCC[C@H]4n3cccn3)c2)C1=O [Compound 34, (4R)-1-[3-[2-[(3R)-3-hydroxy-1-methyl-2-oxo-pyrrolidin-3-yl]ethynyl]phenyl]-4-pyrazol-1-yl-4,5,6,7-tetrahydro-indazole-3-carboxamide] | 0.606 |
| CN1CC[C@@](O)(C#Cc2cccc(-n3nc(C(N)=O)c4c3CCC[C@@H]4NC(=O)C3CC3)c2)C1=O [Compound 37, (4S)-4-(cyclopropanecarbo-nylamino)-1-[3-[2-[(3R)-3-hydroxy-1-methyl-2-oxo-pyrrolidin-3-yl]ethynyl]phen-yl]-4,5,6,7-tetrahydroindazole-3-carboxamide] | 0.193 |
| CN1CC[C@@](O)(C#Cc2cccc(-n3nc(C(N)=O)c4c3CCC[C@@H]4n3cccn3)c2)C1=O [Compound 38, (4S)-1-[3-[2-[(3R)-3-hydroxy-1-methyl-2-oxo-pyrrolidin-3-yl]ethynyl]phenyl]-4-pyrazol-1-yl-4,5,6,7-tetrahydro-indazole-3-carboxamide] | 0.0101 |
| CN1CC[C@@](O)(C#Cc2cccc(-n3nc(C(N)=O)c4c3CCN(CC(C)(C)O)C4)c2)C1=O [Compound 40, 1-[3-[2-[(3R)-3-hydroxy-1-methyl-2-oxo-pyrrolidin-3-yl]ethynyl]phenyl]-5-(2-hy-droxy-2-methyl-propyl)-6,7-dihydro-4H-pyrazolo[4,3-c]pyridine-3-carboxamide] | 0.071 |

More lines, in order of falling Ki, values ahead:

| Ki [µM] | Compound |
| --- | --- |
| 1.04 | CN1CC[C@@](O)(C#Cc2cccc(-n3nc(C(N)=O)c4c3CCC[C@H]4NC(=O)C3CC3)c2)C1=O [Compound 32, (4R)-4-(cyclopropanecarbonyl-amino)-1-[3-[2-[(3R)-3-hydroxy-1-methyl-2-oxo-pyrroli-din-3-yl]ethynyl]phenyl]-4,5,6,7-tetrahydroindazole-3-carboxamide] |
| 0.0455 | CN1CC[C@@](O)(C#Cc2ccnc(-n3nc(C(N)=O)c4c3CC(C)(C)[C@@H](OCc3ccccc3)C4)c2)C1=O [Compound 7, (5S)-5-benzyloxy-1-[4-[2-[(3R)-3-hydroxy-1-methyl-2-oxo-pyrrolidin-3-yl]ethynyl]-2-pyridyl]-6,6-dimethyl-5,7-dihydro-4H-indazole-3-carboxamide] |
| 0.0367 | Cc1nc([C@](C)(O)C#Cc2cccc(-n3nc(C(N)=O)c4ccccc43)c2)no1 [Compound 29, 1-[3-[(3R)-3-hydroxy-3-(5-methyl-1,2,4-oxadiazol-3-yl)but-1-ynyl]phenyl]indazole-3-carboxamide] |
| 0.0134 | CN1CC[C@@](O)(C#Cc2ccnc(-n3nc(C(N)=O)c4c3CC(C)(C)[C@@H](O)C4)c2)C1=O [Compound 11, (5S)-5-hydroxy-1-[4-[2-[(3R)-3-hydroxy-1-methyl-2-oxo-pyrrolidin-3-yl]ethynyl]-2-pyridyl]-6,6-dimethyl-5,7-dihydro-4H-indazole-3-carboxamide] |
| 0.00975 | COc1cccc2c(C(N)=O)nn(-c3cccc(C#C[C@]4(O)CCN(C)C4=O)c3)c12 [Compound 23, 1-[3-[2-[(3R)-3-hydroxy-1-methyl-2-oxo-pyrrolidin-3-yl]ethynyl]phenyl]-7-methoxy-indazole-3-carboxamide] |
| 0.00489 | CN1CC[C@@](O)(C#Cc2cccc(-n3nc(C(N)=O)c4c3CCN(C(=O)C3CC3)C4)c2)C1=O [Compound 20, 5-(cyclopropanecarbonyl)-1-[3-[2-[(3R)-3-hydroxy-1-methyl-2-oxo-pyrrolidin-3-yl]ethynyl]phenyl]-6,7-dihydro-4H-pyrazolo[4,3-c]pyri-dine-3-carboxamide] |
| 0.00292 | CN1CC[C@@](O)(C#Cc2ccnc(-n3nc(C(N)=O)c4c3CC(C)(C)CC4)c2)C1=O [Compound 4, 1-[4-[2-[(3R)-3-hydroxy-1-methyl-2-oxo-pyrrolidin-3-yl]ethynyl]-2-pyridyl]-6,6-dimethyl-5,7-dihydro-4H-inda-zole-3-carboxamide] |
